Results reported in patent US10874631B2, “Altertoxin II as a selective inhibitor of Ewing family of tumor cells” (priority 2016, dated 2020).

Tests used:
[1] = test system: A673 Ewing sarcoma murine xenograft; experiment: A673 xenograft antitumor efficacy; assay type: in vivo, Mice
Experimental: FIG. 11. Antitumor efficacy of ATXII against A673 xenograft model. Mice were injected i.p. with 20 mg/kg. ATXII on days 1, 3, 5, 8, 10 and 12, or 40 mg/kg on days 1, 3, and 5.
Studies were conducted to evaluate the in vivo efficacy of altertoxin II in an A673 Ewing sarcoma murine xenograft model (FIG. 11). Mice bearing A673 xenograft tumors were treated with 20 mg/kg altertoxin II on days 1, 3, 5, 8 and 10, or with 40 mg/kg altertoxin II on days 1, 3 and 5.

EW-8 = experiment: alamar blue assay, proliferation; assay type: cell-based
Experimental: (§1) FIG. 3A-3B. (A) The effects of altertoxin II were evaluated using the SRB assay in 6 Ewing sarcoma cell lines as compared to 4 other pediatric solid tumor cells lines. n≥3 independent experiments. (B) The effects of altertoxin II were evaluated by the Houghton laboratory using the alamar blue assay in an additional 6 Ewing sarcoma cell lines and potency compared to the activities in 5 rhabdomyosarcoma cell lines. n=3 independent experiments.
(§2) The effects of altertoxin II were studied in a larger panel of cell lines and the GI50, the concentration that causes 50% inhibition of cell growth, and the TGI, the concentration that caused total growth inhibition, were determined using the sulforhodamine b (SRB assay). The mean GI50 values shown graphically in FIG. 3A. The IC50, the concentration that causes 50% inhibition of cell proliferation, values were determined in a second panel of Ewing sarcoma and rhabdomyosarcoma cell lines using the altar blue assay and these values are presented in Table 2 and the mean in […].

ES-8 = experiment: alamar blue assay, proliferation; assay type: cell-based; settings: Homo sapiens, ES8, ES-8, Ewing Sarcoma
Experimental: as §1, §2

ES-4 = experiment: alamar blue assay, proliferation; assay type: cell-based; settings: ES-4, Ewing Sarcoma
Experimental: as §1, §2

ES-2 = experiment: alamar blue assay, proliferation; assay type: cell-based; settings: Homo sapiens, ES-2, Ewing Sarcoma, N = 3-6
Experimental: as §1, §2

Rh5 = experiment: alamar blue assay, proliferation; assay type: cell-based; settings: Rh5, Rhabdomyosarcoma
Experimental: as §1, §2

Rh30 = experiment: alamar blue assay, proliferation; assay type: cell-based; settings: Rh30, Rhabdomyosarcoma
Experimental: as §1, §2

Rh41 = experiment: alamar blue assay, proliferation; assay type: cell-based; settings: Homo sapiens, Rh41, Rhabdomyosarcoma
Experimental: as §1, §2

Rh18 = experiment: alamar blue assay, proliferation; assay type: cell-based; settings: Homo sapiens, Rh18, Rhabdomyosarcoma
Experimental: as §1, §2

ES-7 = experiment: alamar blue assay, proliferation; assay type: cell-based; settings: Homo sapiens, ES7, ES-7, Ewing Sarcoma
Experimental: as §1, §2

Rh28 = experiment: alamar blue assay, proliferation; assay type: cell-based; settings: Rh28, Rhabdomyosarcoma
Experimental: as §1, §2

Rh36 = experiment: alamar blue assay, proliferation; assay type: cell-based; settings: Rh36, Rhabdomyosarcoma
Experimental: as §1, §2

TC-71 = experiment: alamar blue assay, proliferation; assay type: cell-based; settings: TC-71, Ewing Sarcoma
Experimental: as §1, §2

[2] = test system: HepG2 hepatocellular carcinoma cells; experiment: Altertoxin II concentration in cell media by LC/MS; assay type: in vitro ADME; settings: after 2 h
Experimental: (§3) An experiment was conducted to test this possibility. TC-32 Ewing sarcoma and Rh30 rhabdomyosarcoma cells were treated with 100 nM ATX for 6 h and the conditioned media was then applied to the resistant Rh30 cells. […] Differences in the altertoxin II concentration were measured by LC/MS in media from TC-32 and HepG2 hepatocellular carcinoma cells.

TC-32 cells [3] = experiment: Altertoxin II concentration in cell media by LC/MS; assay type: in vitro ADME; settings: TC-32 media, after 2 h
Experimental: as §3

[4] = test system: 4 Ewing sarcoma cell lines, including SK-ES-1 cells; experiment: Cell cycle distribution by flow cytometry; assay type: cell-based; settings: each of 4 Ewing sarcoma lines
Experimental: FIG. 5A-5B. Altertoxin II causes accumulation of SK-ES-1 Ewing sarcoma cells in the S-phase of the cell cycle. Cell cycle analysis of SK-ES-1 cells by flow cytometry. (A) Histogram of DNA content after treatment with two different concentrations of ATX for 18 hours. (B) quantification of cells in each cell cycle phase.
The effects of altertoxin II on cell cycle distribution were evaluated in 4 Ewing sarcoma cell lines using flow cytometry.

TC-32 cells [5] = experiment: R-loop marker S9.6 immunofluorescence; assay type: cell-based; settings: TC-32 nuclei, 24 h
Experimental: (§4) FIG. 8A-8B. The effects of 10 and 100 nM altertoxin II (ATXII) on 53BP1 foci were evaluated following a 6 h treatment of A673 cells by indirect immunofluorescence. (B) Immunofluorescence of R-loop marker S9.6 in TC-32 cells 24 h after ATXII treatment. Arrows indicate R-loops within nuclei.
(§5) Multiple investigators have shown that Ewing sarcoma cells undergo replication stress and R-loop accumulation.

SK-ES-1 = experiment: SRB assay, growth inhibition; assay type: cell-based
Experimental: as §1, §2

RD-ES = experiment: SRB assay, growth inhibition; assay type: cell-based; settings: EWS
Experimental: as §1, §2

A673 = experiment: SRB assay, growth inhibition; assay type: cell-based; settings: A673, EWS
Experimental: as §1, §2

SK-N-BE2 = experiment: SRB assay, growth inhibition; assay type: cell-based
Experimental: as §1, §2

A204 = experiment: SRB assay, growth inhibition; assay type: cell-based; settings: A204, RMS
Experimental: as §1, §2

SH-SY-5Y = experiment: SRB assay, growth inhibition; assay type: cell-based; settings: NB
Experimental: as §1, §2

D283 = experiment: SRB assay, growth inhibition; assay type: cell-based; settings: D283, Med
Experimental: as §1, §2

Ewing sarcoma cell lines = experiment: SRB assay panel, selectivity Ewing sarcoma vs other pediatric solid tumor cell lines; assay type: cell-based; settings: mean GI50, 6 Ewing sarcoma cell lines
Experimental: as §1, §2

A673 Ewing sarcoma cells = experiment: 53BP1 foci immunofluorescence; assay type: cell-based; settings: 10 nM and 100 nM, within 6 h
Experimental: as §4, §5

O=C1CC[C@]2(O)c3c(ccc(O)c31)-c1ccc(O)c3c1[C@H]2[C@H]1O[C@H]1C3=O [altertoxin II]
tumor growth ([1]; 20 mg/kg i.p. days 1, 3, 5, 8 and 10): trend of modest tumor growth inhibition | tumor volume vs control on day 14 ([1]; 20 mg/kg, day 14): no statistically significant difference | tumor growth ([1]; 40 mg/kg i.p. days 1, 3 and 5, 14-day trial): significant inhibition of tumor growth | tumor size vs control on day 14 ([1]; 40 mg/kg, day 14, p=0.0001): significantly smaller than control tumors | therapeutic window ([1]; A673 xenograft): acceptable therapeutic window | IC50 (EW-8; EW8, EW-8, Ewing Sarcoma, alamar blue): 6.5 ± 0.3 nM | sensitivity of EW-8 cell line (EW-8; EW-8 is resistant to PARP1 inhibitors): highly sensitive | IC50 (ES-8): 7 ± 1 nM | IC50 (ES-4): 20 ± 2 nM | IC50 (ES-2): 23 ± 4 nM | IC50 (Rh5): 1050 ± 230 nM | IC50 (Rh30): 750 ± 60 nM | IC50 (Rh41): 1130 ± 300 nM | IC50 (Rh18): 990 ± 120 nM | IC50 (ES-7): 3 ± 1 nM | IC50 (Rh28): 790 ± 90 nM | IC50 (Rh36): 1030 ± 210 nM | IC50 (TC-71): 4.6 ± 0.5 nM | altertoxin II remaining in media [2]: no altertoxin II was detectable | altertoxin II remaining in media (TC-32 cells [3]): approximately 25% | cell cycle distribution [4]: Concentration-dependent S-phase arrest | R-loop formation (S9.6 marker) (TC-32 cells [5]): increased formation of R-loops | GI50 (SK-ES-1; Homo sapiens, SK-ES1, SK-ES-1, EWS): 35 nM | TGI (SK-ES-1; SK-ES-1, EWS): 151 nM | GI50 (RD-ES; n ≥ 3): 14 nM | TGI (RD-ES; total growth inhibitory concentration): 60 nM | TGI (A673): 139 nM | GI50 (A673; Homo sapiens): 28 nM | GI50 (SK-N-BE2; Homo sapiens, SKNBE2, SK-N-BE2, NB): 1000 nM | TGI (SK-N-BE2; SK-N-BE2, NB): 2000 nM | TGI (A204): 1500 nM | GI50 (A204; Homo sapiens): 960 nM | GI50 (SH-SY-5Y; Homo sapiens, SH-SY5Y): 560 nM | TGI (SH-SY-5Y): 920 nM | GI50 (D283): 940 nM | TGI (D283): 1700 nM | selectivity of Ewing sarcoma cell lines vs other pediatric solid tumor cell lines (Ewing sarcoma cell lines): 58 fold | 53BP1 foci (A673 Ewing sarcoma cells): nuclear foci were noted
